Assay results as given in the supplement of paper PMC10307832.

Experiments:
Assay in all cases: relative viability (nuclei count vs DMSO), 5 days (fraction); higher = more cells survive
Tozasertib + OSI-027 = compound: Cc1cc(Nc2cc(N3CCN(C)CC3)nc(Sc3ccc(NC(=O)C4CC4)cc3)n2)n[nH]1 [Tozasertib] + COc1cccc2cc(-c3nc([C@H]4CC[C@H](C(=O)O)CC4)n4ncnc(N)c34)[nH]c12 [OSI-027] (partner 0.5 µM)
Method in brief: (§1)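 Lung cancer cell lines, seeded in 1536-well plates, were treated the following day by pin tool with a single drug or with five library-drug doses (not always all listed) in √10 steps on top of a fixed anchor-drug dose. Cells were fixed and nuclei stained in one step after 5 days, and nuclei were counted. Relative viability is the nuclei count for treated wells divided by that for vehicle wells, reported as medians of duplicate plates.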

Tozasertib + Phenformin = compound: Cc1cc(Nc2cc(N3CCN(C)CC3)nc(Sc3ccc(NC(=O)C4CC4)cc3)n2)n[nH]1 [Tozasertib] + N=C(N)NC(=N)NCCc1ccccc1 [Phenformin] (partner 250 µM)
Method in brief: as §1

Tozasertib + Decitabine = compound: Cc1cc(Nc2cc(N3CCN(C)CC3)nc(Sc3ccc(NC(=O)C4CC4)cc3)n2)n[nH]1 [Tozasertib] + Nc1ncn([C@H]2C[C@H](O)[C@@H](CO)O2)c(=O)n1 [Decitabine] (partner 2 µM)
Method in brief: as §1

Tozasertib + Pemetrexed = compound: Cc1cc(Nc2cc(N3CCN(C)CC3)nc(Sc3ccc(NC(=O)C4CC4)cc3)n2)n[nH]1 [Tozasertib] + Nc1nc2[nH]cc(CCc3ccc(C(=O)N[C@@H](CCC(=O)O)C(=O)O)cc3)c2c(=O)[nH]1 [Pemetrexed] (partner 0.2 µM)
Method in brief: as §1

Tozasertib + AZD7762 = compound: Cc1cc(Nc2cc(N3CCN(C)CC3)nc(Sc3ccc(NC(=O)C4CC4)cc3)n2)n[nH]1 [Tozasertib] + NC(=O)Nc1cc(-c2cccc(F)c2)sc1C(=O)N[C@H]1CCCNC1 [AZD7762] (partner 0.2 µM)
Method in brief: as §1

Tozasertib + Palbociclib = compound: Cc1cc(Nc2cc(N3CCN(C)CC3)nc(Sc3ccc(NC(=O)C4CC4)cc3)n2)n[nH]1 [Tozasertib] + CC(=O)c1c(C)c2cnc(Nc3ccc(N4CCNCC4)cn3)nc2n(C2CCCC2)c1=O [Palbociclib] (partner 0.5 µM)
Method in brief: as §1

Tozasertib + Dasatinib = compound: Cc1cc(Nc2cc(N3CCN(C)CC3)nc(Sc3ccc(NC(=O)C4CC4)cc3)n2)n[nH]1 [Tozasertib] + Cc1nc(Nc2ncc(C(=O)Nc3c(C)cccc3Cl)s2)cc(N2CCN(CCO)CC2)n1 [Dasatinib] (partner 0.075 µM)
Method in brief: as §1

Tozasertib + Trametinib = compound: Cc1cc(Nc2cc(N3CCN(C)CC3)nc(Sc3ccc(NC(=O)C4CC4)cc3)n2)n[nH]1 [Tozasertib] + CC(=O)Nc1cccc(-n2c(=O)n(C3CC3)c(=O)c3c(Nc4ccc(I)cc4F)n(C)c(=O)c(C)c32)c1 [Trametinib] (partner 0.02 µM)
Method in brief: as §1

Tozasertib + Vorinostat = compound: Cc1cc(Nc2cc(N3CCN(C)CC3)nc(Sc3ccc(NC(=O)C4CC4)cc3)n2)n[nH]1 [Tozasertib] + O=C(CCCCCCC(=O)Nc1ccccc1)NO [Vorinostat] (partner 1 µM)
Method in brief: as §1

Tozasertib + Foretinib = compound: Cc1cc(Nc2cc(N3CCN(C)CC3)nc(Sc3ccc(NC(=O)C4CC4)cc3)n2)n[nH]1 [Tozasertib] + COc1cc2c(Oc3ccc(NC(=O)C4(C(=O)Nc5ccc(F)cc5)CC4)cc3F)ccnc2cc1OCCCN1CCOCC1 [Foretinib] (partner 0.25 µM)
Method in brief: as §1

Tozasertib + Luminespib = compound: Cc1cc(Nc2cc(N3CCN(C)CC3)nc(Sc3ccc(NC(=O)C4CC4)cc3)n2)n[nH]1 [Tozasertib] + CCNC(=O)c1noc(-c2cc(C(C)C)c(O)cc2O)c1-c1ccc(CN2CCOCC2)cc1 [Luminespib] (partner 0.01 µM)
Method in brief: as §1

Tozasertib + Olaparib = compound: Cc1cc(Nc2cc(N3CCN(C)CC3)nc(Sc3ccc(NC(=O)C4CC4)cc3)n2)n[nH]1 [Tozasertib] + O=C(c1cc(Cc2n[nH]c(=O)c3ccccc23)ccc1F)N1CCN(C(=O)C2CC2)CC1 [Olaparib] (partner 8 µM)
Method in brief: as §1

Tozasertib = compound: Cc1cc(Nc2cc(N3CCN(C)CC3)nc(Sc3ccc(NC(=O)C4CC4)cc3)n2)n[nH]1 [Tozasertib]
Method in brief: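 Five library-drug doses spaced by √10 were pinned onto vehicle-anchored 1536-well plates of lung cancer cell lines that had been kept overnight at 37 °C. Cells went 5 days without medium change, then were fixed, permeabilised and Hoechst-stained together, imaged at 4× and counted by MetaXpress. Viability is the ratio of treated-well to vehicle-well nuclei, taken as a median over plates. Plates required control CV below 25% and at least one doubling.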

SW 900
relative viability (Tozasertib + OSI-027; first compound 0.004 µM): 0.767
relative viability (Tozasertib + OSI-027; first compound 0.01265 µM): 0.54
relative viability (Tozasertib + OSI-027; first compound 0.04 µM): 0.75
relative viability (Tozasertib + OSI-027; first compound 0.1265 µM): 0.28
relative viability (Tozasertib + Phenformin; first compound 0.004 µM): 0.583
relative viability (Tozasertib + Phenformin; first compound 0.01265 µM): 0.381
relative viability (Tozasertib + Phenformin; first compound 0.04 µM): 0.708
relative viability (Tozasertib + Phenformin; first compound 0.1265 µM): 0.586
relative viability (Tozasertib + Decitabine; first compound 0.004 µM): 0.43
relative viability (Tozasertib + Decitabine; first compound 0.01265 µM): 0.442
relative viability (Tozasertib + Decitabine; first compound 0.04 µM): 0.347
relative viability (Tozasertib + Decitabine; first compound 0.1265 µM): 0.375
relative viability (Tozasertib + Pemetrexed; first compound 0.004 µM): 0.516
relative viability (Tozasertib + Pemetrexed; first compound 0.04 µM): 0.498
relative viability (Tozasertib + Pemetrexed; first compound 0.1265 µM): 0.408
relative viability (Tozasertib + AZD7762; first compound 0.004 µM): 0.485
relative viability (Tozasertib + AZD7762; first compound 0.01265 µM): 0.72
relative viability (Tozasertib + AZD7762; first compound 0.04 µM): 0.622
relative viability (Tozasertib + AZD7762; first compound 0.1265 µM): 0.467
relative viability (Tozasertib + Palbociclib; first compound 0.004 µM): 0.62
relative viability (Tozasertib + Palbociclib; first compound 0.01265 µM): 0.536
relative viability (Tozasertib + Palbociclib; first compound 0.04 µM): 0.542
relative viability (Tozasertib + Palbociclib; first compound 0.1265 µM): 0.382
relative viability (Tozasertib + Dasatinib; first compound 0.004 µM): 0.79
relative viability (Tozasertib + Dasatinib; first compound 0.01265 µM): 0.51
relative viability (Tozasertib + Dasatinib; first compound 0.04 µM): 0.503
relative viability (Tozasertib + Dasatinib; first compound 0.1265 µM): 0.567
relative viability (Tozasertib + Trametinib; first compound 0.004 µM): 0.653
relative viability (Tozasertib + Trametinib; first compound 0.01265 µM): 0.798
relative viability (Tozasertib + Trametinib; first compound 0.04 µM): 0.911
relative viability (Tozasertib + Trametinib; first compound 0.1265 µM): 0.509
relative viability (Tozasertib + Vorinostat; first compound 0.004 µM): 0.579
relative viability (Tozasertib + Vorinostat; first compound 0.01265 µM): 0.436
relative viability (Tozasertib + Vorinostat; first compound 0.1265 µM): 0.266
relative viability (Tozasertib + Foretinib; first compound 0.004 µM): 0.914
relative viability (Tozasertib + Foretinib; first compound 0.01265 µM): 0.825
relative viability (Tozasertib + Foretinib; first compound 0.04 µM): 1.08
relative viability (Tozasertib + Foretinib; first compound 0.1265 µM): 0.638
relative viability (Tozasertib + Luminespib; first compound 0.004 µM): 0.167
relative viability (Tozasertib + Luminespib; first compound 0.01265 µM): 0.188
relative viability (Tozasertib + Luminespib; first compound 0.04 µM): 0.205
relative viability (Tozasertib + Luminespib; first compound 0.1265 µM): 0.173
relative viability (Tozasertib + Olaparib; first compound 0.004 µM): 0.802
relative viability (Tozasertib + Olaparib; first compound 0.01265 µM): 0.809
relative viability (Tozasertib + Olaparib; first compound 0.04 µM): 0.851
relative viability (Tozasertib + Olaparib; first compound 0.1265 µM): 0.619
relative viability (Tozasertib; 0.004 µM): 1.06
relative viability (Tozasertib; 0.01265 µM): 0.736
relative viability (Tozasertib; 0.04 µM): 0.933
relative viability (Tozasertib; 0.1 µM, anchor plate): 0.566
relative viability (Tozasertib; 0.1265 µM): 0.62

NCI-H1623
relative viability (Tozasertib + OSI-027; first compound 0.004 µM): 0.45
relative viability (Tozasertib + OSI-027; first compound 0.01265 µM): 0.428
relative viability (Tozasertib + OSI-027; first compound 0.04 µM): 0.487
relative viability (Tozasertib + OSI-027; first compound 0.1265 µM): 0.453
relative viability (Tozasertib + Phenformin; first compound 0.004 µM): 0.552
relative viability (Tozasertib + Phenformin; first compound 0.01265 µM): 0.541
relative viability (Tozasertib + Phenformin; first compound 0.04 µM): 0.583
relative viability (Tozasertib + Phenformin; first compound 0.1265 µM): 0.526
relative viability (Tozasertib + Dasatinib; first compound 0.004 µM): 0.549
relative viability (Tozasertib + Dasatinib; first compound 0.01265 µM): 0.515
relative viability (Tozasertib + Dasatinib; first compound 0.04 µM): 0.536
relative viability (Tozasertib + Dasatinib; first compound 0.1265 µM): 0.556
relative viability (Tozasertib + Foretinib; first compound 0.004 µM): 0.781
relative viability (Tozasertib + Foretinib; first compound 0.01265 µM): 0.829
relative viability (Tozasertib + Foretinib; first compound 0.04 µM): 0.898
relative viability (Tozasertib + Foretinib; first compound 0.1265 µM): 0.761
relative viability (Tozasertib + Luminespib; first compound 0.004 µM): 0.43
relative viability (Tozasertib + Luminespib; first compound 0.04 µM): 0.473
relative viability (Tozasertib + Luminespib; first compound 0.1265 µM): 0.505
relative viability (Tozasertib; 0.004 µM): 0.859
relative viability (Tozasertib; 0.01265 µM): 0.965
relative viability (Tozasertib; 0.04 µM): 0.966
relative viability (Tozasertib; 0.1 µM, anchor plate): 0.434
relative viability (Tozasertib; 0.1265 µM): 0.929
